What was measured:
[1] = molecular target: T1, Type-2 angiotensin II receptor (Homo sapiens, UniProt P50052); type: cell-based; settings: cho-k1; note: in other assays of this panel Not Active means under 50% inhibition at 10 µM
T1 sequence (P50052 whole entry): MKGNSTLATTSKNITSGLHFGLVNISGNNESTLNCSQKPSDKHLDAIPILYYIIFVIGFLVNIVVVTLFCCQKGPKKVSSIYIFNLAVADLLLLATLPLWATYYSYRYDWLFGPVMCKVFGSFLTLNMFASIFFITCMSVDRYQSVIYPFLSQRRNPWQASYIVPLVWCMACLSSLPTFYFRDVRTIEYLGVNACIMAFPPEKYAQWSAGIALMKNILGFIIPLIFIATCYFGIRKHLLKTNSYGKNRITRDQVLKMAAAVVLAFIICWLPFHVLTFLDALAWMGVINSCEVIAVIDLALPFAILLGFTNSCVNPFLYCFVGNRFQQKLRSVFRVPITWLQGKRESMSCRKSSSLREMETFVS

[2] = DRUGMATRIX: GABAA, Muscimol, Central radioligand binding (ligand: [3H] Muscimol); type: cell membranes, Rattus norvegicus, Wistar, Brain, Membrane; settings: Not Active = under 50% inhibition at 10 µM
[3] = molecular target: T2, 3-hydroxy-3-methylglutaryl-coenzyme A reductase (Homo sapiens, UniProt P04035); parameters: species or system Escherichia coli;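 note: enzyme inhibition assay of HMG-CoA reductase using radiolabeled [14C]HMG-CoA as substrate; in other assays of this panel Not Active means under 50% inhibition at 10 µM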
T2 sequence (P04035 whole entry): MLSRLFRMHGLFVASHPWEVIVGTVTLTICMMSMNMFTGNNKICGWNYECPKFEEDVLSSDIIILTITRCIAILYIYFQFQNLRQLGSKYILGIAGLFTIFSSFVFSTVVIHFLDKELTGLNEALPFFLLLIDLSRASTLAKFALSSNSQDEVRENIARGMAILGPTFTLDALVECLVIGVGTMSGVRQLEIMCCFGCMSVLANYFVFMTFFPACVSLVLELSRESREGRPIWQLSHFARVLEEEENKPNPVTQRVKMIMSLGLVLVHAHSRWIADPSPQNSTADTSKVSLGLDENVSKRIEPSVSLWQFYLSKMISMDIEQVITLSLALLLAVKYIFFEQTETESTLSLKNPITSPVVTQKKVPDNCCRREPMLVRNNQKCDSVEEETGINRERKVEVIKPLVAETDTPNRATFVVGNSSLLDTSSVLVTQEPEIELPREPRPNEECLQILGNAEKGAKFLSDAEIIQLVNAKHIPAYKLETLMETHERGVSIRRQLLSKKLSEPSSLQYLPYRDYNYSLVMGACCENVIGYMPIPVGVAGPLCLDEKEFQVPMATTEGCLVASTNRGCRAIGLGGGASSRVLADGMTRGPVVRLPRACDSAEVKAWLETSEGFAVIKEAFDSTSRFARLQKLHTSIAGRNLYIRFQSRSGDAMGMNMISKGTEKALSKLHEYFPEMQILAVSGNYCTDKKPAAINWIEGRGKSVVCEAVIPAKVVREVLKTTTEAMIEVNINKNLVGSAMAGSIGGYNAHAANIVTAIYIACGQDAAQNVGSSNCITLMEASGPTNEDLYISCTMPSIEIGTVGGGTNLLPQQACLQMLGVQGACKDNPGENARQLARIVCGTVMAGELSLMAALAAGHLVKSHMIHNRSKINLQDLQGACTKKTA

[4] = molecular target: T3, Muscarinic acetylcholine receptor M4 (Homo sapiens, UniProt P08173); type: cell membranes, CHO-K1, Membrane; settings: cho-k1; note: in other assays of this panel Not Active means under 50% inhibition at 10 µM
T3 sequence (P08173 whole entry): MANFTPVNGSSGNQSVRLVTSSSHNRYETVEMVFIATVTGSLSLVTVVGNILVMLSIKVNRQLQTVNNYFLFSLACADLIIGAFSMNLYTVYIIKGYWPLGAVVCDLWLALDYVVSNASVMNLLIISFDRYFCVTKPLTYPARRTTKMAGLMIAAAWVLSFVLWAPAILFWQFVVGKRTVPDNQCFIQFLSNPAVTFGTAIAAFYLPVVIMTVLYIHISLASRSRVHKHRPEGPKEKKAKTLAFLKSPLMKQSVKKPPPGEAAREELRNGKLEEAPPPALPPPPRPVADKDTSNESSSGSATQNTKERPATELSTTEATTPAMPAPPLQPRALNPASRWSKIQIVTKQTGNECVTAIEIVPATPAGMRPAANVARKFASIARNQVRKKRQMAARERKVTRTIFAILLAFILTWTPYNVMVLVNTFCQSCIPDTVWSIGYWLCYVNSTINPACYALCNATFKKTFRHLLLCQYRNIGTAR

[5] = molecular target: T4, Muscarinic acetylcholine receptor M5 (Homo sapiens, UniProt P08912); type: cell membranes, Membrane; settings: cho-k1; note: in other assays of this panel Not Active means under 50% inhibition at 10 µM
T4 sequence (P08912 whole entry): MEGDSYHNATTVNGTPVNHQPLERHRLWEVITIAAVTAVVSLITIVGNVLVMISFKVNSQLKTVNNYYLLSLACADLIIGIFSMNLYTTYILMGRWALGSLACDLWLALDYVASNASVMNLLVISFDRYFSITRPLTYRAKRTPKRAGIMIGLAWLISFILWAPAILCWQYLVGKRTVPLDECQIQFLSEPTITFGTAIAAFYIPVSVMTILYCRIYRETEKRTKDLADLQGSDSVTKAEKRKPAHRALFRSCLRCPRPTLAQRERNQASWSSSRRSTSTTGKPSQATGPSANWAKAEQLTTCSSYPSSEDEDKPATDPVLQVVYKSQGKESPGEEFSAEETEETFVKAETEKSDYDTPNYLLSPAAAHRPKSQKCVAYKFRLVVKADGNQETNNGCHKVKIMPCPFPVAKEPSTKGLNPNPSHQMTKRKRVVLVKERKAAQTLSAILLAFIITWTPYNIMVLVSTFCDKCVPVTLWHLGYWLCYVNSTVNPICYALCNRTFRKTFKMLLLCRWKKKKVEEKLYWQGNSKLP

[6] = molecular target: Tyrosine-protein kinase Fyn (Homo sapiens, UniProt P06241); assay: biochemical; type: cell-based, Insect cells; settings: insect cells
Chain of Tyrosine-protein kinase Fyn (P06241 whole entry): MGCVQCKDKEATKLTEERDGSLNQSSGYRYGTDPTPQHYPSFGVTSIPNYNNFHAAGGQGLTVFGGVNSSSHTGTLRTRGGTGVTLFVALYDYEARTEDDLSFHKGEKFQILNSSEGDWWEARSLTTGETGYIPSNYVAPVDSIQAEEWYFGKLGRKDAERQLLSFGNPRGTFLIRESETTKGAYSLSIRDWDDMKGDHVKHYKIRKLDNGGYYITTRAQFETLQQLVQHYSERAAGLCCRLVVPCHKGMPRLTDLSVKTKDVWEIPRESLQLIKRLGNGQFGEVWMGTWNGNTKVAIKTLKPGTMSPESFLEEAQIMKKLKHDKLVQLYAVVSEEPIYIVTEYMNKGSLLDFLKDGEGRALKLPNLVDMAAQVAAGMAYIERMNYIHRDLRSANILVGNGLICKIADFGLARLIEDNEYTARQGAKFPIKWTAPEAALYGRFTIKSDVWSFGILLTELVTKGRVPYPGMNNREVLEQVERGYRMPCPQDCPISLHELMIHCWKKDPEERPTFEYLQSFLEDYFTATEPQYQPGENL

Adenosine receptor A1 = molecular target: T5, Adenosine receptor A1 (Homo sapiens, UniProt P30542); type: cell membranes, CHO, Membrane; settings: cho
T5 sequence (P30542 whole entry): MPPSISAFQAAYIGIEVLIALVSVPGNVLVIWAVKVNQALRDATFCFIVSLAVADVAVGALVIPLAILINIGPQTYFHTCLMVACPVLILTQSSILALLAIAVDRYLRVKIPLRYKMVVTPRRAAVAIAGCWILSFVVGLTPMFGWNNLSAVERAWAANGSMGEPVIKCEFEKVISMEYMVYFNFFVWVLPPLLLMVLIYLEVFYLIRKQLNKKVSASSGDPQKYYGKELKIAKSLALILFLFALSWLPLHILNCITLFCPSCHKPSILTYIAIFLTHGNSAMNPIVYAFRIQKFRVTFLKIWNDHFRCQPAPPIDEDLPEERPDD

Cc1cn([C@H]2C[C@H](N=[N+]=[N-])[C@@H](CO)O2)c(=O)[nH]c1=O [ZIDOVUDINE]
Not Active: IC50 [1] | IC50 [2] | Ki [2] | IC50 [3] | IC50 [4] | IC50 [5] | IC50 [6] | IC50 (Adenosine receptor A1)

STANNOUS FLUORIDE
Not Active: IC50 [1] | Ki [1] | IC50 [2] | Ki [2] | IC50 [3] | Ki [3] | IC50 [4] | Ki [4] | IC50 [5] | Ki [5] | IC50 [6] | Ki [6] | IC50 (Adenosine receptor A1) | Ki (Adenosine receptor A1)

THIMEROSAL
Not Active: IC50 [1] | Ki [1] | IC50 [2] | Ki [2] | IC50 [3] | Ki [3] | IC50 [4] | Ki [4] | IC50 [5] | Ki [5] | IC50 [6] | Ki [6] | IC50 (Adenosine receptor A1) | Ki (Adenosine receptor A1)
